Experimental data published in ChEMBL document CHEMBL3132806, “Dual mode of action of phenyl-pyrazole-phenyl (6-5-6 system)-based PPI inhibitors: alpha-helix backbone versus alpha-helix binding epitope” (Medchemcomm, 2013).

Key:
[1] = molecular target: Tumour suppressor p53/oncoprotein Mdm2 (Homo sapiens, UniProt Q00987); test: Inhibition of 6His-tagged MDM2 (1 to 118) interaction to FITC-tagged p53 (17 to 26) (unknown origin) after 30 mins by fluorescence polarization assay; assay type: protein assay
[2] = Kinetic solubility of the compound in PBS buffer; assay type: physicochemical

Sequence of Tumour suppressor p53/oncoprotein Mdm2 (P04637 whole entry): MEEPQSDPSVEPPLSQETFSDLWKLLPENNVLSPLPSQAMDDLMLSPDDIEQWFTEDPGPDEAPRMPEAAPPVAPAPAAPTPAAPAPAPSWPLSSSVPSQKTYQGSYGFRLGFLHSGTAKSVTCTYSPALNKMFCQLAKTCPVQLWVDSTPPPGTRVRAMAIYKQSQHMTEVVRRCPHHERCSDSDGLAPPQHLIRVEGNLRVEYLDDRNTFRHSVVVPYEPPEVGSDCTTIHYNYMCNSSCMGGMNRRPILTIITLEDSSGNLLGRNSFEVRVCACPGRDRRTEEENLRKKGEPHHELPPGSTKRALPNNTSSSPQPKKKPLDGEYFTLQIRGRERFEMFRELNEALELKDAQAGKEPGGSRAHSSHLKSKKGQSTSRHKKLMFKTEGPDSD
Sequence of Tumour suppressor p53/oncoprotein Mdm2 (Q00987 whole entry): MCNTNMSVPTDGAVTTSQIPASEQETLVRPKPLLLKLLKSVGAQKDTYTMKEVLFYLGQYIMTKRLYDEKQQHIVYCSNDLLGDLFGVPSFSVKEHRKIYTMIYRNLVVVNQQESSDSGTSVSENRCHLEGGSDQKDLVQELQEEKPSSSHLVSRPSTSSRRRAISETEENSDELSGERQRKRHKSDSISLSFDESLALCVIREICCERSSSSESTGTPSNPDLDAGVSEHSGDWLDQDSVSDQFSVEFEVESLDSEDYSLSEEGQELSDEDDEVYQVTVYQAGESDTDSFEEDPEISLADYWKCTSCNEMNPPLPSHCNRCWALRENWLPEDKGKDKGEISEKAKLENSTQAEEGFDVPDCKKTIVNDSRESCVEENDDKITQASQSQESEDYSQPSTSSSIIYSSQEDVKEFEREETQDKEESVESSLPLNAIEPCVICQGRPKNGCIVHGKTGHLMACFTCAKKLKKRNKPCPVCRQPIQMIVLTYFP

CCOc1ccccc1-c1cc(-c2cc(CC(=O)O)ccc2OCC(C)C)nn1CCc1ccccc1
IC50 [1]: 48.7 µM
Kinetic_solubility [2]: 0.046 Ug/ml

CCOc1ccccc1-c1cc(-c2cc(C(=O)O)ccc2OC)nn1CCc1ccccc1
IC50 [1]: 232 µM
Kinetic_solubility [2]: > 0.2 Ug/ml

CCOc1ccccc1-c1cc(-c2cc(C(=O)O)ccc2OC)nn1Cc1ccccc1
IC50 [1]: 238 µM
Kinetic_solubility [2]: 0.039 Ug/ml

CCOc1ccccc1-c1cc(-c2cc(CC(=O)O)ccc2OCc2cccc(Cl)c2)nn1CCc1ccccc1
IC50 [1]: 249 µM
Kinetic_solubility [2]: < 0.015 Ug/ml

CCOc1ccccc1-c1cc(-c2cc(CCC(=O)O)ccc2OC)nn1CCc1ccccc1
IC50 [1]: 258 µM
Kinetic_solubility [2]: > 0.2 Ug/ml

CCOc1ccccc1-c1cc(-c2cc(CC(=O)O)ccc2OC)nn1Cc1ccccc1
IC50 [1]: 288 µM
Kinetic_solubility [2]: 0.138 Ug/ml

CCOc1ccc(C(=O)O)cc1-c1cc(-c2cccc(OC)c2OC)n(Cc2ccccc2)n1
IC50 [1]: 295 µM
Kinetic_solubility [2]: 0.138 Ug/ml

CCCOc1ccc(CC(=O)O)cc1-c1cc(-c2cccc(OC)c2OC)n(Cc2ccccc2)n1
IC50 [1]: 329 µM
Kinetic_solubility [2]: > 0.2 Ug/ml

CCOc1ccccc1-c1cc(-c2cc(CC(=O)O)ccc2OC)nn1CCc1ccccc1
IC50 [1]: 339 µM
Kinetic_solubility [2]: > 0.2 Ug/ml

CCOc1ccccc1-c1cc(-c2ccc(C(=O)O)cc2)nn1Cc1ccccc1
IC50 [1]: 346 µM
Kinetic_solubility [2]: 0.117 Ug/ml

CCOc1ccc(CC(=O)O)cc1-c1cc(-c2cccc(OC)c2OC)n(Cc2ccccc2)n1
IC50 [1]: 348 µM
Kinetic_solubility [2]: > 0.2 Ug/ml

CCOc1ccc(CCC(=O)O)cc1-c1cc(-c2cccc(OC)c2OC)n(Cc2ccccc2)n1
IC50 [1]: 353 µM
Kinetic_solubility [2]: > 0.2 Ug/ml

CCOc1ccccc1-c1cc(-c2cc(CCC(=O)O)ccc2OC)nn1Cc1ccccc1
IC50 [1]: 388 µM
Kinetic_solubility [2]: > 0.2 Ug/ml

COc1ccc(CCC(=O)O)cc1-c1cc(-c2cccc(OC)c2OC)n(CCc2ccccc2)n1
IC50 [1]: 436 µM
Kinetic_solubility [2]: > 0.2 Ug/ml

COc1ccc(CCC(=O)O)cc1-c1cc(-c2cccc(OC)c2OC)n(Cc2ccccc2)n1
IC50 [1]: 449 µM
Kinetic_solubility [2]: 0.169 Ug/ml

COc1ccc(CC(=O)O)cc1-c1cc(-c2ccc(F)cc2)n(Cc2ccccc2)n1
IC50 [1]: 595 µM
Kinetic_solubility [2]: > 0.2 Ug/ml

COc1ccc(CC(=O)O)cc1-c1cc(-c2cccc(OC)c2OC)n(CCc2ccccc2)n1
IC50 [1]: 727 µM
Kinetic_solubility [2]: > 0.2 Ug/ml

COc1ccc(CC(=O)O)cc1-c1cc(-c2cccc(OC)c2OC)n(Cc2ccccc2)n1
IC50 [1]: 967 µM
Kinetic_solubility [2]: > 0.2 Ug/ml

COc1ccc(C(=O)O)cc1-c1cc(-c2cccc(OC)c2OC)n(Cc2ccccc2)n1
IC50 [1]: 1020 µM
Kinetic_solubility [2]: > 0.2 Ug/ml

CCCOc1ccc(C(=O)O)cc1-c1cc(-c2cccc(OC)c2OC)n(CCc2ccccc2)n1
IC50 [1]: 6.56 µM
Kinetic_solubility [2]: 0.117 Ug/ml

COc1cccc(-c2cc(-c3cc(C(=O)O)ccc3OCC(C)C)nn2CCc2ccccc2)c1OC
IC50 [1]: 8.22 µM
Kinetic_solubility [2]: 0.056 Ug/ml

CCOc1ccc(C(=O)O)cc1-c1cc(-c2ccccc2OCC)n(CCc2ccccc2)n1
IC50 [1]: 10.7 µM
Kinetic_solubility [2]: 0.022 Ug/ml

CCOc1ccc(C(=O)O)cc1-c1cc(-c2cccc(OC)c2OC)n(CCc2ccccc2)n1
IC50 [1]: 14 µM
Kinetic_solubility [2]: > 0.2 Ug/ml

CCCCOc1ccc(C(=O)O)cc1-c1cc(-c2cccc(OC)c2OC)n(CCc2ccccc2)n1
IC50 [1]: 14.2 µM
Kinetic_solubility [2]: 0.066 Ug/ml

CCOc1ccccc1-c1cc(-c2cc(C(=O)O)ccc2OCC(C)C)nn1CCc1ccccc1
IC50 [1]: 14.2 µM
Kinetic_solubility [2]: 0.015 Ug/ml

CCCCOc1ccc(C(=O)O)cc1-c1cc(-c2ccccc2OCC)n(CCc2ccccc2)n1
IC50 [1]: 16.8 µM
Kinetic_solubility [2]: 0.032 Ug/ml

COc1ccc(CCC(=O)O)cc1-c1cc(-c2ccc(F)cc2)n(Cc2ccccc2)n1
IC50 [1]: 17 µM
Kinetic_solubility [2]: 0.066 Ug/ml

COc1cccc(-c2cc(-c3cc(CCC(=O)O)ccc3OCc3cccc(Cl)c3)nn2Cc2ccccc2)c1OC
IC50 [1]: 31.6 µM
Kinetic_solubility [2]: < 0.015 Ug/ml

COc1cccc(-c2cc(-c3cc(CCC(=O)O)ccc3OCc3cccc(Cl)c3)nn2CCc2ccccc2)c1OC
IC50 [1]: 34 µM
Kinetic_solubility [2]: < 0.015 Ug/ml

CCOc1ccc(CCC(=O)O)cc1-c1cc(-c2ccc(F)cc2)n(CCc2ccccc2)n1
IC50 [1]: 35.8 µM
Kinetic_solubility [2]: > 0.2 Ug/ml

COc1ccc(CCC(=O)O)cc1-c1cc(-c2ccc(Cl)cc2)n(CCc2ccccc2)n1
IC50 [1]: 38.9 µM
Kinetic_solubility [2]: 0.046 Ug/ml

O=C(O)CCc1ccc(OCc2cccc(Cl)c2)c(-c2cc(-c3ccc(F)cc3)n(CCc3ccccc3)n2)c1
IC50 [1]: 47.8 µM
Kinetic_solubility [2]: < 0.015 Ug/ml

O=C(O)CCc1ccc(OCc2cccc(Cl)c2)c(-c2cc(-c3ccc(F)cc3)n(Cc3ccccc3)n2)c1
IC50 [1]: 51.9 µM
Kinetic_solubility [2]: < 0.015 Ug/ml

CCCCOc1ccc(CC(=O)O)cc1-c1cc(-c2ccccc2OCC)n(CCc2ccccc2)n1
IC50 [1]: 54.1 µM
Kinetic_solubility [2]: 0.096 Ug/ml

CCOc1ccccc1-c1cc(-c2cc(CC(=O)O)ccc2OCc2cccc(Cl)c2)nn1Cc1ccccc1
IC50 [1]: 54.4 µM
Kinetic_solubility [2]: < 0.015 Ug/ml

CCCOc1ccc(CC(=O)O)cc1-c1cc(-c2cccc(OC)c2OC)n(CCc2ccccc2)n1
IC50 [1]: 60.6 µM
Kinetic_solubility [2]: 0.117 Ug/ml

COc1cccc(-c2cc(-c3cc(CC(=O)O)ccc3OCC(C)C)nn2CCc2ccccc2)c1OC
IC50 [1]: 68.3 µM
Kinetic_solubility [2]: 0.056 Ug/ml

CCCOc1ccc(C(=O)O)cc1-c1cc(-c2ccccc2OCC)n(Cc2ccccc2)n1
IC50 [1]: 68.8 µM
Kinetic_solubility [2]: 0.096 Ug/ml

CCCOc1ccc(CC(=O)O)cc1-c1cc(-c2ccccc2OCC)n(CCc2ccccc2)n1
IC50 [1]: 72 µM
Kinetic_solubility [2]: 0.066 Ug/ml

CCCOc1ccc(C(=O)O)cc1-c1cc(-c2cccc(OC)c2OC)n(Cc2ccccc2)n1
IC50 [1]: 79.3 µM
Kinetic_solubility [2]: > 0.2 Ug/ml

COc1ccc(CCC(=O)O)cc1-c1cc(-c2ccc(Cl)cc2)n(Cc2ccccc2)n1
IC50 [1]: 86.6 µM
Kinetic_solubility [2]: 0.019 Ug/ml

CCOc1ccccc1-c1cc(-c2ccc(C(=O)O)cc2)nn1CCc1ccccc1
IC50 [1]: 91.2 µM
Kinetic_solubility [2]: > 0.2 Ug/ml

CCOc1ccc(CCC(=O)O)cc1-c1cc(-c2ccc(F)cc2)n(Cc2ccccc2)n1
IC50 [1]: 101 µM
Kinetic_solubility [2]: < 0.015 Ug/ml

CCOc1ccc(CC(=O)O)cc1-c1cc(-c2ccccc2OCC)n(CCc2ccccc2)n1
IC50 [1]: 102 µM
Kinetic_solubility [2]: > 0.2 Ug/ml

CCOc1ccc(CCC(=O)O)cc1-c1cc(-c2ccccc2OCC)n(CCc2ccccc2)n1
IC50 [1]: 105 µM
Kinetic_solubility [2]: 0.102 Ug/ml

CCOc1ccc(C(=O)O)cc1-c1cc(-c2ccccc2OCC)n(Cc2ccccc2)n1
IC50 [1]: 111 µM
Kinetic_solubility [2]: 0.066 Ug/ml

CCCCOc1ccc(CC(=O)O)cc1-c1cc(-c2cccc(OC)c2OC)n(CCc2ccccc2)n1
IC50 [1]: 116 µM
Kinetic_solubility [2]: 0.117 Ug/ml

CCCCOc1ccc(CC(=O)O)cc1-c1cc(-c2cccc(OC)c2OC)n(Cc2ccccc2)n1
IC50 [1]: 118 µM
Kinetic_solubility [2]: > 0.2 Ug/ml

COc1cccc(-c2cc(-c3cc(CC(=O)O)ccc3OCC(C)C)nn2Cc2ccccc2)c1OC
IC50 [1]: 120 µM
Kinetic_solubility [2]: > 0.2 Ug/ml

O=C(O)c1ccc(-c2cc(-c3ccc(F)cc3)n(CCc3ccccc3)n2)cc1
IC50 [1]: 128 µM
Kinetic_solubility [2]: 0.096 Ug/ml

O=C(O)Cc1ccc(OCc2ccccc2Cl)c(-c2cc(-c3ccc(F)cc3)n(Cc3ccccc3)n2)c1
IC50 [1]: 130 µM
Kinetic_solubility [2]: < 0.015 Ug/ml

COc1ccc(C(=O)O)cc1-c1cc(-c2cccc(OC)c2OC)n(CCc2ccccc2)n1
IC50 [1]: 186 µM
Kinetic_solubility [2]: > 0.2 Ug/ml
